The record followed here is patent US10428044B2, “3-amino-1,5,6,7-tetrahydro-4H-indol-4-ones” (Bayer Pharma Aktiengesellschaft, priority 2014, dated 2019).

Several values for one entry are separate records, joined by “and”; a condition that tells them apart may be missing. Identical values can stand only once.

In the test the target is (recombinant) catalytic domain of human Bub1 (amino acids 704-1085) (Homo sapiens (Human), UniProt O43683). Nature of the test: Bub1 kinase assay (TR-FRET). It counts as biochemical. To be noted: ATP 10 μM final, peptide substrate 1 μM final, 60 min at 22° C., read-out: Biological Assay: Bub1 kinase assay median IC50. As to the method:
Examples were tested in selected biological assays one or more times. When tested more than once, data are reported as either average values or as median values, wherein • the average value, also referred to as the arithmetic mean value, represents the sum of the values obtained divided by the number of times tested, and • the median value represents the middle number of the group of values when ranked in ascending or descending order. If the number of values in the data set is odd, the median is the middle value. If the number of values in the data set is even, the median is the arithmetic mean of the two middle values.
To this end, 100-fold concentrated compound solutions (in DMSO) were previously prepared by serial dilution (1:3.4) of 2 mM stocks in a clear low volume 384-well source microtiter plate (Greiner Bio-One, Frickenhausen, Germany), from which 50 nl of compounds were transferred into a black low volume test microtiter plate from the same supplier. […] The resulting mixture (5 μL final volume) was incubated at 22° C. during 60 min., and the reaction was stopped by the addition of 5 μL of an aqueous EDTA-solution (50 mM EDTA, in 100 mM HEPES pH 7.5 and 0.2% (w/v) bovine serum albumin) which also contained the TR-FRET detection reagents (0.2 μM streptavidin-XL665 [Cisbio Bioassays, Codolet, France] and 1 nM anti-phosho-Serine antibody [Merck Millipore, cat. #35-002] and 0.4 nM LANCE EU-W1024 labeled anti-mouse IgG antibody [Perkin-Elmer, product no. AD0077, alternatively a Terbium-cryptate-labeled anti-mouse IgG antibody from Cisbio Bioassays can be used]). The stopped reaction mixture was further incubated 1 h at 22° C. in order to allow the formation of complexes between peptides and detection reagents. Subsequently, the amount of product was evaluated by measurement of the resonance energy transfer from the Eu-chelate-antibody complex recognizing the Phosphoserine residue to the streptavidin-XL665 bound to the biotin moiety of the peptide. […] The data were normalised using two sets of control wells for high- (=enzyme reaction without inhibitor=0%=Minimum inhibition) and low- (=all assay components without enzyme=100%=Maximum inhibition) Bub1 activity. IC50 values were calculated by fitting the normalized inhibition data to a 4-parameter logistic equation (Minimum, Maximum, IC50, Hill; Y=Max+(Min−Max)/(1+(X/IC50)Hill)).
(In general: In TR-FRET formats the signal depends on donor and acceptor labels being close together.)

(recombinant) catalytic domain of human Bub1 (amino acids 704-1085), sequence (O43683 704-1085): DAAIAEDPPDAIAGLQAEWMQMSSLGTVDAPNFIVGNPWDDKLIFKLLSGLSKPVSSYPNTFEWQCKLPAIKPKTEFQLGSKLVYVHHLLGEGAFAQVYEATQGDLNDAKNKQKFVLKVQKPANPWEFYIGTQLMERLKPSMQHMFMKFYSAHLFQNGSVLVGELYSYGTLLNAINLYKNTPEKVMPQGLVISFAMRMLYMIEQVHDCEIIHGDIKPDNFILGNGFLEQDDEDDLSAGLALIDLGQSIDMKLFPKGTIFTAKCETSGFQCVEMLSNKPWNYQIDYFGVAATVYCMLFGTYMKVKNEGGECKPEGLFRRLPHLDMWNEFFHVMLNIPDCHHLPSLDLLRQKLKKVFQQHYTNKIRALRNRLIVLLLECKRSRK

In the case of `O=C1CCCc2[nH]c(-c3ccnc(NC(=O)C4C[C@@H]4F)c3)c(Nc3ccccc3)c21` (mixture of isomers) [Example 249, rel-(R,S/S,R)-2-fluoro-N-{4-[4-oxo-3-(phenylamino)-4,5,6,7-tetrahydro-1H-indol-2-yl]pyridin-2-yl}cyclopropanecarboxamide], the IC50 is 16.4 nM and 7.55 nM.

As to `O=C1CCCc2[nH]c(-c3ccnc(NC(=O)C4C[C@H]4F)c3)c(Nc3ccccc3)c21` (mixture of isomers) [Example 252, rel-(S,S/R,R)-2-fluoro-N-{4-[4-oxo-3-(phenylamino)-4,5,6,7-tetrahydro-1H-indol-2-yl]pyridin-2-yl}cyclopropanecarboxamide], the IC50 came to 16.6 nM.

`CC1(C)CC(=O)c2c([nH]c(-c3ccnc(NC(=O)[C@@H]4C[C@H]4F)c3)c2Nc2ccccc2)C1` (racemic) [Example 254, (S,R)—N-{4-[6,6-dimethyl-4-oxo-3-(phenylamino)-4,5,6,7-tetrahydro-1H-indol-2-yl]pyridin-2-yl}-2-fluorocyclopropanecarboxamide]: the IC50 stood at 6.34 nM.

For `CC1(C)CC(=O)c2c([nH]c(-c3ccnc(NC(=O)[C@H]4C[C@H]4F)c3)c2Nc2ccccc2)C1` (racemic) [Example 257, (R,R)—N-{4-[6,6-dimethyl-4-oxo-3-(phenylamino)-4,5,6,7-tetrahydro-1H-indol-2-yl]pyridin-2-yl}-2-fluorocyclopropanecarboxamide], the concentration for half-maximal inhibition (IC50) was found to be 59.7 nM.

Turning to `O=C1CCCc2[nH]c(-c3ccnc(NC(=O)C4CC4(F)F)c3)c(Nc3ccccc3)c21` (racemic) [Example 260, 2,2-difluoro-N-{4-[4-oxo-3-(phenylamino)-4,5,6,7-tetrahydro-1H-indol-2-yl]pyridin-2-yl}cyclopropanecarboxamide], the IC50 is 23.6 nM.

`O=C1CCCc2[nH]c(-c3ccnc(NC(=O)C4CC4C(F)(F)F)c3)c(Nc3ccccc3)c21` (racemic) [Example 262, N-{4-[4-oxo-3-(phenylamino)-4,5,6,7-tetrahydro-1H-indol-2-yl]pyridin-2-yl}-2-(trifluoromethyl)cyclopropanecarboxamide]: the half-maximal inhibitory concentration (IC50) is 32.6 nM.

For `O=C1CC2(CC2)Cc2[nH]c(-c3ccnc(NC(=O)[C@H]4C[C@@H]4F)c3)c(Nc3ccccc3)c21` (relative stereo) [Example 466, rel-(R,S)-2-fluoro-N-{4-[4′-oxo-3′-(phenylamino)-1′,4′,5′,7′-tetrahydrospiro[cyclopropane-1,6′-indol]-2′-yl]pyridin-2-yl}cyclopropanecarboxamide], the IC50 is 5.03 nM.

With `CC(C)C1CC(=O)c2c([nH]c(-c3ccncc3)c2Nc2ccccc2)C1` (single isomer, unassigned) [Example 17, 3-(phenylamino)-6-(propan-2-yl)-2-(pyridin-4-yl)-1,5,6,7-tetrahydro-4H-indol-4-one], the half-inhibitory concentration (IC50) is 4.04 nM.

Turning to `CC(C)C1CC(=O)c2c([nH]c(-c3ccncc3)c2Nc2ccccc2)C1` (single isomer, unassigned) [Example 18, 3-(phenylamino)-6-(propan-2-yl)-2-(pyridin-4-yl)-1,5,6,7-tetrahydro-4H-indol-4-one], the IC50 stood at 5.09 nM.

`O=C1CC(C(F)(F)F)Cc2[nH]c(-c3ccncc3)c(Nc3ccccc3)c21` (single isomer, unassigned) [Example 440, 3-(phenylamino)-2-(pyridin-4-yl)-6-(trifluoromethyl)-1,5,6,7-tetrahydro-4H-indol-4-one]: the IC50 stood at 12.9 nM.

Consider `O=C1CC(C(F)(F)F)Cc2[nH]c(-c3ccncc3)c(Nc3ccccc3)c21` (single isomer, unassigned) [Example 441, 3-(phenylamino)-2-(pyridin-4-yl)-6-(trifluoromethyl)-1,5,6,7-tetrahydro-4H-indol-4-one], for which the IC50 turned out to be 5.72 nM.

As for `CC(C)[C@H]1CC(=O)c2c([nH]c(-c3ccnc(N)c3)c2Nc2ccc(F)cc2)C1` (stereo in doubt) [Example 167, 2-(2-aminopyridin-4-yl)-3-[(4-fluorophenyl)amino]-6-(propan-2-yl)-1,5,6,7-tetrahydro-4H-indol-4-one], the half-inhibitory concentration (IC50) came to 53.1 nM.

In the case of `CC1(C)CC(=O)c2c([nH]c(-c3ccncc3)c2Nc2ccccc2)C1` [Example 1, 6,6-dimethyl-3-(phenylamino)-2-(pyridin-4-yl)-1,5,6,7-tetrahydro-4H-indol-4-one], the half-inhibitory concentration (IC50) stood at 6.25 nM.

`CC1(C)CC(=O)c2c([nH]c(-c3ccncc3Cl)c2Nc2ccccc2)C1` [Example 2, 2-(3-chloropyridin-4-yl)-6,6-dimethyl-3-(phenylamino)-1,5,6,7-tetrahydro-4H-indol-4-one]: the IC50 was 8.98 nM.

Consider `Cc1cccc(Nc2c(-c3ccncc3)[nH]c3c2C(=O)CC(C)(C)C3)c1` [Example 3, 6,6-dimethyl-3-[(3-methylphenyl)amino]-2-(pyridin-4-yl)-1,5,6,7-tetrahydro-4H-indol-4-one], for which the IC50 came out at 37.8 nM.

Turning to `CC1(C)CC(=O)c2c([nH]c(-c3ccncc3)c2Nc2cccc(Cl)c2)C1` [Example 4, 6,6-dimethyl-3-[(3-chlorophenyl)amino]-2-(pyridin-4-yl)-1,5,6,7-tetrahydro-4H-indol-4-one], the half-maximal inhibitory concentration (IC50) stood at 15.9 nM.

Turning to `CC1(C)CC(=O)c2c([nH]c(-c3ccncn3)c2Nc2ccccc2)C1` [Example 5, 6,6-dimethyl-3-(phenylamino)-2-(pyrimidin-4-yl)-1,5,6,7-tetrahydro-4H-indol-4-one], the IC50 is 25.2 nM.

As to `CC(C)C1CC(=O)c2c([nH]c(-c3ccncc3)c2Nc2ccccc2)C1` (stereo not shown) [Example 7, 3-(phenylamino)-6-(propan-2-yl)-2-(pyridin-4-yl)-1,5,6,7-tetrahydro-4H-indol-4-one], the IC50 stood at 5.57 nM.

In the case of `O=C1CC(c2ccccc2)Cc2[nH]c(-c3ccncc3)c(Nc3ccccc3)c21` (stereo not shown) [Example 8, 6-Phenyl-3-phenylamino-2-(pyridin-4-yl)-1,5,6,7-tetrahydroindol-4-one], the IC50 was determined as 22.1 nM.

Turning to `O=C1CCCc2[nH]c(-c3ccncc3)c(Nc3ccccc3)c21` [Example 9, 3-(phenylamino)-2-(pyridin-4-yl)-1,5,6,7-tetrahydro-4H-indol-4-one], the IC50 amounted to 12.1 nM.

Take `CC1(C)CC(=O)c2c([nH]c(-c3ccncc3)c2Nc2ccc(Cl)cc2)C1` [Example 10, 3-[(4-chlorophenyl)amino]-6,6-dimethyl-2-(pyridin-4-yl)-1,5,6,7-tetrahydro-4H-indol-4-one]: the IC50 was 12.5 nM.

On to `CC1(C)CC(=O)c2c([nH]c(-c3ccncc3)c2Nc2ccc(F)cc2)C1` [Example 11, 3-[(4-fluorophenyl)amino]-6,6-dimethyl-2-(pyridin-4-yl)-1,5,6,7-tetrahydro-4H-indol-4-one], for which the IC50 is 16.5 nM.

Regarding `CC1(C)CC(=O)c2c([nH]c(-c3ccncc3)c2Nc2cccc(Br)c2)C1` [Example 12, 3-[(3-bromophenyl)amino]-6,6-dimethyl-2-(pyridin-4-yl)-1,5,6,7-tetrahydro-4H-indol-4-one], the IC50 came out at 15.4 nM.

As for `O=C1CC2(CCC2)Cc2[nH]c(-c3ccncc3)c(Nc3ccccc3)c21` [Example 13, 3′-(phenylamino)-2′-(pyridin-4-yl)-1′,7′-dihydrospiro[cyclobutane-1,6′-indol]-4′(5′H)-one], the IC50 came out at 6.55 nM.

As to `Cc1cc(F)cc(Nc2c(-c3ccncc3)[nH]c3c2C(=O)CC(C)(C)C3)c1` [Example 14, 3-[(3-fluoro-5-methylphenyl)amino]-6,6-dimethyl-2-(pyridin-4-yl)-1,5,6,7-tetrahydro-4H-indol-4-one], the IC50 came out at 10.8 nM.

Usually IC50 stands for the concentration that inhibits the measured activity by half.
